# Experimental data: patent US11827657B2, “Boron containing pyrazole compounds, compositions comprising them, methods and uses thereof” (BOEHRINGER INGELHEIM ANIMAL HEALTH USA INC., priority 2020, dated 2023)
# Molecular target: JAK1 (Homo sapiens, UniProt P23458)
# Assay: Biochemical Kinase Assay (JAK), 33P-ATP filter-binding
# Conditions: Biochemical Kinase Inhibition Assay; potency level of IC50; read-out: JAK1 (range)
# Experimental: Biochemical Kinase Assay Protocol (JAK) • Reagent: Base Reaction buffer; 20 mM Hepes (pH 7.5), 10 mM MgCl2, 1 mM EGTA, 0.02% Brij™ 35, 0.02 mg/ml BSA, 0.1 mM Na3VO4, 2 mM DTT, 1% DMSO, where required cofactors were added individually to each kinase reaction.
# Reaction Procedure: • 1. Prepared indicated substrate in freshly prepared Base Reaction Buffer • 2. Delivered any required cofactors to the substrate solution above • 3. Delivered indicated kinase into the substrate solution and gently mix • 4. Delivered compounds in DMSO into the kinase reaction mixture by Acoustic technology (Echo550; nanoliter range), incubated for 20 minutes at room temperature • 5. Delivered 33P-ATP into the reaction mixture to initiate the reaction. • 6. Incubated kinase reaction for 2 hours at room temperature • 7. Reactions were spotted onto P81 ion exchange paper • 8. Detected kinase activity by filter-binding method.
# Compounds according to the present invention were tested in the Biochemical Kinase Assay Protocol. The results are provided below in Table 1, wherein the potency levels A, B, and C in the columns labeled JAK1 (range) correspond to IC50 as follows: A<10 nM; B=10-50 nM and C>50 nM. The Example Number entries formatted ##a represent stereoisomer one and entries formatted ##b represent stereoisomer two.
# Sequence of JAK1 (P23458 whole entry, species assumed): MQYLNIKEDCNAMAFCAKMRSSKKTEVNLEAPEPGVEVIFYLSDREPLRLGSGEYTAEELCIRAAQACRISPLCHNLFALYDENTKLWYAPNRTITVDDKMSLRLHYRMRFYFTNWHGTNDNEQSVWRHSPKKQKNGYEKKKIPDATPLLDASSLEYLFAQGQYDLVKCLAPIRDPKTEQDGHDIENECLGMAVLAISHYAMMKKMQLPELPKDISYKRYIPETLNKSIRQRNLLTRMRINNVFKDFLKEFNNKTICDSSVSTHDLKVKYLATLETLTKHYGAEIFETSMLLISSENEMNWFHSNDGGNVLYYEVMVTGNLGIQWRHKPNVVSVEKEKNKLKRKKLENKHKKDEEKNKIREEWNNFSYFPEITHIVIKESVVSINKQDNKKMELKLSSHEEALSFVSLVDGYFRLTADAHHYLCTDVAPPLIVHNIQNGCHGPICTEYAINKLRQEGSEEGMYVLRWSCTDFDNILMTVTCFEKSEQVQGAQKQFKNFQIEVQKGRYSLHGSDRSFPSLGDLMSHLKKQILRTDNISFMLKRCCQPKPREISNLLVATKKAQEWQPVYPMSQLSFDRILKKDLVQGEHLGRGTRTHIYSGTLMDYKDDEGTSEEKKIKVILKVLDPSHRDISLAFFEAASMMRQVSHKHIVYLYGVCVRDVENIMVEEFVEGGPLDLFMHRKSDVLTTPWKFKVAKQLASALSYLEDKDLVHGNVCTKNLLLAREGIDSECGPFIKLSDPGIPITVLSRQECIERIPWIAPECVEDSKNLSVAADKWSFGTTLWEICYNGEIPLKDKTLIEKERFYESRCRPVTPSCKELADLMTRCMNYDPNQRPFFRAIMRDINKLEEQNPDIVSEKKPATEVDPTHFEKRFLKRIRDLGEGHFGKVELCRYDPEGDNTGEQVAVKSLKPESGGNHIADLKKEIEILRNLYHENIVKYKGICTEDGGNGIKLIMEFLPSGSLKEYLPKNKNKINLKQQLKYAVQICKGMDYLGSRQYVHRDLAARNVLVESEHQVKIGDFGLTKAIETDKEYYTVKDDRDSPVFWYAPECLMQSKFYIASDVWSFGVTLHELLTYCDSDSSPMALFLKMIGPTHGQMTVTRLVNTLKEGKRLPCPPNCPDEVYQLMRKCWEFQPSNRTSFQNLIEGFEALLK
row,Compound,IC50
1,"N#C[C@@H]1CCOC[C@H]1n1cc(C(N)=O)c(Nc2cc(F)c3c(c2)COB3O)n1 (single isomer, unassigned) [Example 38a, 1-[trans-4-cyanotetrahydro-2H-pyran-3-yl]-3-[(7-fluoro-1-hydroxy-3H-2,1-benzoxaborol-5-yl)amino]pyrazole-4-carboxamide]",10 to 50 nM
2,"N#C[C@@H]1CCOC[C@H]1n1cc(C(N)=O)c(Nc2cc(F)c3c(c2)COB3O)n1 (single isomer, unassigned) [Example 38b, 1-[trans-4-cyanotetrahydropyran-3-yl]-3-[(7-fluoro-1-hydroxy-3H-2,1-benzoxaborol-5-yl)amino]pyrazole-4-carboxamide]",< 10 nM
3,"N#C[C@@H]1CCOC[C@H]1n1cc(C(N)=O)c(Nc2ccc3c(c2)COB3O)n1 (single isomer, unassigned) [Example 41a, 1-(trans-4-cyanotetrahydro-2H-pyran-3-yl)-3-((1-hydroxy-1,3-dihydrobenzo[c][1,2]oxaborol-5-yl)amino)-1H-pyrazole-4-carboxamide]",< 10 nM
4,"N#C[C@@H]1CCOC[C@H]1n1cc(C(N)=O)c(Nc2ccc3c(c2)COB3O)n1 (single isomer, unassigned) [Example 41b, 1-(trans-4-cyanotetrahydro-2H-pyran-3-yl)-3-((1-hydroxy-1,3-dihydrobenzo[c][1,2]oxaborol-5-yl)amino)-1H-pyrazole-4-carboxamide]",< 10 nM
5,"N#C[C@@H]1CCOC[C@H]1n1cc(C(N)=O)c(Nc2ccc3c(c2)B(O)OCC3)n1 (single isomer, unassigned) [Example 42a, 1-[trans-4-cyanotetrahydro-2H-pyran-3-yl]-3-[(1-hydroxy-3,4-dihydro-2,1-benzoxaborinin-7-yl)amino]pyrazole-4-carboxamide]",< 10 nM
6,"N#C[C@@H]1CCOC[C@H]1n1cc(C(N)=O)c(Nc2ccc3c(c2)B(O)OCC3)n1 (single isomer, unassigned) [Example 42b, 1-[trans-4-cyanotetrahydro-2H-pyran-3-yl]-3-[(1-hydroxy-3,4-dihydro-2,1-benzoxaborinin-7-yl)amino]pyrazole-4-carboxamide]",< 10 nM
7,"N#C[C@@H]1CCOC[C@H]1n1cc(C(N)=O)c(Nc2ccc3c(c2)C(Cl)=CB(O)O3)n1 (single isomer, unassigned) [Example 43a, 3-[(4-chloro-2-hydroxy-1,2-benzoxaborinin-6-yl)amino]-1-[trans-4-cyanotetrahydro-2H-pyran-3-yl]pyrazole-4-carboxamide]",< 10 nM
8,"N#C[C@@H]1CCOC[C@H]1n1cc(C(N)=O)c(Nc2ccc3c(c2)C(Cl)=CB(O)O3)n1 (single isomer, unassigned) [Example 43b, 3-[(4-chloro-2-hydroxy-1,2-benzoxaborinin-6-yl)amino]-1-[trans-4-cyanotetrahydro-2H-pyran-3-yl]pyrazole-4-carboxamide]",< 10 nM
9,"N#C[C@@H]1CCOC[C@H]1n1cc(C(N)=O)c(Nc2cc(F)c3c(c2)C=CB(O)O3)n1 (single isomer, unassigned) [Example 44a, 1-[trans-4-cyanotetrahydro-2H-pyran-3-yl]-3-[(8-fluoro-2-hydroxy-1,2-benzoxaborinin-6-yl)amino]pyrazole-4-carboxamide]",< 10 nM
10,"N#C[C@@H]1CCOC[C@H]1n1cc(C(N)=O)c(Nc2cc(F)c3c(c2)C=CB(O)O3)n1 (single isomer, unassigned) [Example 44b, 1-[trans-4-cyanotetrahydro-2H-pyran-3-yl]-3-[(8-fluoro-2-hydroxy-1,2-benzoxaborinin-6-yl)amino]pyrazole-4-carboxamide]",< 10 nM
11,"CC1=Cc2cc(Nc3nn([C@@H]4CCC[C@H]4C#N)cc3C(N)=O)cc(F)c2OB1O (single isomer, unassigned) [Example 45a, 1-[trans-2-cyanocyclopentyl]-3-[(8-fluoro-2-hydroxy-3-methyl-1,2-benzoxaborinin-6-yl)amino]pyrazole-4-carboxamide]",< 10 nM
12,"Cc1cc2c(cc1Nc1nn([C@@H]3COCC[C@H]3C#N)cc1C(N)=O)C=CB(O)O2 (single isomer, unassigned) [Example 46a, 1-(trans-4-cyanotetrahydro-2H-pyran-3-yl)-3-((2-hydroxy-7-methyl-2H-benzo[e][1,2]oxaborinin-6-yl)amino)-1H-pyrazole-4-carboxamide]",> 50 nM
13,"Cc1cc2c(cc1Nc1nn([C@@H]3COCC[C@H]3C#N)cc1C(N)=O)C=CB(O)O2 (single isomer, unassigned) [Example 46b, 1-(trans-4-cyanotetrahydro-2H-pyran-3-yl)-3-((2-hydroxy-7-methyl-2H-benzo[e][1,2]oxaborinin-6-yl)amino)-1H-pyrazole-4-carboxamide]",> 50 nM
14,"CC1=CB(O)Oc2c(C)cc(Nc3nn([C@@H]4COCC[C@H]4C#N)cc3C(N)=O)cc21 (single isomer, unassigned) [Example 47a, 1-[trans-4-cyanotetrahydro-2H-pyran-3-yl]-3-[(2-hydroxy-4,8-dimethyl-1,2-benzoxaborinin-6-yl)amino]pyrazole-4-carboxamide]",< 10 nM
15,"CC1=CB(O)Oc2c(C)cc(Nc3nn([C@@H]4COCC[C@H]4C#N)cc3C(N)=O)cc21 (single isomer, unassigned) [Example 47b, 1-[trans-4-cyanotetrahydro-2H-pyran-3-yl]-3-[(2-hydroxy-4,8-dimethyl-1,2-benzoxaborinin-6-yl)amino]pyrazole-4-carboxamide]",< 10 nM
16,"CC(C)C1=Cc2cc(Nc3nn([C@@H]4COCC[C@H]4C#N)cc3C(N)=O)ccc2OB1O (single isomer, unassigned) [Example 48a, 1-(trans-4-cyanotetrahydro-2H-pyran-3-yl)-3-((2-hydroxy-3-isopropyl-2H-benzo[e][1,2]oxaborinin-6-yl)amino)-1H-pyrazole-4-carboxamide]",< 10 nM
17,"CC(C)C1=Cc2cc(Nc3nn([C@@H]4COCC[C@H]4C#N)cc3C(N)=O)ccc2OB1O (single isomer, unassigned) [Example 48b, 1-(trans-4-cyanotetrahydro-2H-pyran-3-yl)-3-((2-hydroxy-3-isopropyl-2H-benzo[e][1,2]oxaborinin-6-yl)amino)-1H-pyrazole-4-carboxamide]",< 10 nM
18,"N#C[C@@H]1CCOC[C@H]1n1cc(C(N)=O)c(Nc2ccc3c(c2)C=CB(O)O3)n1 (single isomer, unassigned) [Example 51a, 1-[trans-4-cyanotetrahydro-2H-pyran-3-yl]-3-[(2-hydroxy-1,2-benzoxaborinin-6-yl)amino]pyrazole-4-carboxamide]",< 10 nM
19,"N#C[C@@H]1CCOC[C@H]1n1cc(C(N)=O)c(Nc2ccc3c(c2)C=CB(O)O3)n1 (single isomer, unassigned) [Example 51b, 1-[trans-4-cyanotetrahydro-2H-pyran-3-yl]-3-[(2-hydroxy-1,2-benzoxaborinin-6-yl)amino]pyrazole-4-carboxamide]",< 10 nM
20,"N#C[C@@H]1CCOC[C@H]1n1cc(C(N)=O)c(Nc2cc(Cl)c3c(c2)COB3O)n1 (single isomer, unassigned) [Example 52a, 3-((7-chloro-1-hydroxy-1,3-dihydrobenzo[c][1,2]oxaborol-5-yl)amino)-1-(trans-4-cyanotetrahydro-2H-pyran-3-yl)-1H-pyrazole-4-carboxamide]",< 10 nM
21,"N#C[C@@H]1CCOC[C@H]1n1cc(C(N)=O)c(Nc2cc(Cl)c3c(c2)COB3O)n1 (single isomer, unassigned) [Example 52b, 3-((7-chloro-1-hydroxy-1,3-dihydrobenzo[c][1,2]oxaborol-5-yl)amino)-1-(trans-4-cyanotetrahydro-2H-pyran-3-yl)-1H-pyrazole-4-carboxamide]",< 10 nM
22,"N#C[C@@H]1CCOC[C@H]1n1cc(C(N)=O)c(Nc2cc3c(c(OC(F)(F)F)c2)OB(O)C=C3)n1 (single isomer, unassigned) [Example 53a, 1-[trans-4-cyanotetrahydro-2H-pyran-3-yl]-3-[[2-hydroxy-8-(trifluoromethoxy)-1,2-benzoxaborinin-6-yl]amino]pyrazole-4-carboxamide]",> 50 nM
23,"N#C[C@@H]1CCOC[C@H]1n1cc(C(N)=O)c(Nc2cc3c(c(OC(F)(F)F)c2)OB(O)C=C3)n1 (single isomer, unassigned) [Example 53b, 1-[trans-4-cyanotetrahydro-2H-pyran-3-yl]-3-[[2-hydroxy-8-(trifluoromethoxy)-1,2-benzoxaborinin-6-yl]amino]pyrazole-4-carboxamide]",< 10 nM
24,"N#C[C@@H]1CCOC[C@H]1n1cc(C(N)=O)c(Nc2cc3c(c(C4CC4)c2)OB(O)C=C3)n1 (single isomer, unassigned) [Example 55a, 1-[trans-4-cyanotetrahydro-2H-pyran-3-yl]-3-[(8-cyclopropyl-2-hydroxy-1,2-benzoxaborinin-6-yl)amino]pyrazole-4-carboxamide]",< 10 nM
25,"N#C[C@@H]1CCOC[C@H]1n1cc(C(N)=O)c(Nc2cc3c(c(C4CC4)c2)OB(O)C=C3)n1 (single isomer, unassigned) [Example 55b, 1-[trans-4-cyanotetrahydro-2H-pyran-3-yl]-3-[(8-cyclopropyl-2-hydroxy-1,2-benzoxaborinin-6-yl)amino]pyrazole-4-carboxamide]",> 50 nM
26,"CC1=CB(O)Oc2ccc(Nc3nn(C4COCCC4C#N)cc3C(N)=O)cc21 (stereo not drawn) [Example 3, 1-[trans-4-cyanotetrahydro-2H-pyran-3-yl]-3-[(2-hydroxy-4-methyl-1,2-benzoxaborinin-6-yl)amino]pyrazole-4-carboxamide]",< 10 nM
